# From patent publication EP0466251A1, “Elfamycin-resistant mutants” (priority 1990, dated 1992)
# Assays:
# [1] = target: T1, parent SrEF-Tu from S. ramocissimus CBS 190.69 (Streptomyces ramocissimus, UniProt P29542); assay: in vitro poly(U) directed poly(phe) synthesis; assay type: biochemical
# T1 construct: made in house; host or cells: E. coli PM1455
# Experimental: (§1) The sensitivity of SrEF-Tu mutants A378V and A378T to elfamycin was tested by in vitro studies. Both parent and mutant S. ramocissimus EF-Tu, after transformation of the respective cloned genes, were expressed in an E. coli strain encoding an elfamycin resistant EF-Tu. Cell-free extracts of these transformants were subsequently tested for elfamycin sensitivity of the translation apparatus, using a variation on the procedure described by C. Glöckner and H. Wolf (cited above). […] The parent SrEF-Tu reached 50% residual activity already at 1.6 mg/l. […]
# (§2) Plasmids pUSrT1-1, pUSrT1V-1 and pUSrT1T-1 were transformed to E. coli PM1455 (tufA, tufB::Mu, rpoB, recA56; P. van der Meide et al., Eur. J. Biochem. 130 (1983) 409-417); this strain has only one active tuf gene, which encodes an elfamycin resistant EF-Tu. […] The first 4 fractions having absorbance at 260 nm were pooled. […]
# (§3) At 0°C an incubation mixture was prepared consisting of 40 mM Tris-acetate pH 7.6, 10 mM Mg-acetate, 60 mM NH₄Cl, 5 mM β-mercaptoethanol, 1 mM ATP, 0.025 mM GTP, 2.5 mM phosphoenolpyruvate, 0.25 µg/ml pyruvate kinase, 0.8 mg/ml tRNA, 0.1 mg/ml poly(U), 95 µM phenylalanine, and 3 µCi/ml ³H-phenylalanine (57 Ci/mmol). […] Incorporation of ³H-phenylalanine was analyzed in a liquid scintillation counter. […]
# SrEF-Tu mutant A378V = target: T2, SrEF-Tu mutant A378V (Streptomyces ramocissimus, UniProt P29542, A379V); assay: in vitro poly(U) directed poly(phe) synthesis; assay type: biochemical, S. ramocissimus
# T2 construct: made in house; host or cells: E. coli PM1455
# T2 sequence (P29542 whole entry A379V): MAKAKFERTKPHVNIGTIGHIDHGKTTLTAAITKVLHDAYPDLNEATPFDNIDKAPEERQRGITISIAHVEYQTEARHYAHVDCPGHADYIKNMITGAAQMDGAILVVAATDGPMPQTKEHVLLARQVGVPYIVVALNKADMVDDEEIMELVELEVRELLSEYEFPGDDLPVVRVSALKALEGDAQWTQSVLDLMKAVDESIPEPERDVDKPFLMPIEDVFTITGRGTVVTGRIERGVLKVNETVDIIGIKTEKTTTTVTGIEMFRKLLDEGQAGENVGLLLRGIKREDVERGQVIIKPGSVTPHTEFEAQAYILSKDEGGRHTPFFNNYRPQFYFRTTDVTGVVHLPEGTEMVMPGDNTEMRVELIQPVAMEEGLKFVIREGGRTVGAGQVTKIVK
# Experimental: as §1, §2, §3
# S. ramocissimus R1V [2] = assay: growth of plated mycelium, minimal inhibitory concentration; assay type: cell-based; conditions: mycelium pregrown in YMG medium without mocimycin; 1 ml of a 16 hrs culture plated
# Source text: (§4) Essentially identical results were obtained when for each of the strains spores were substituted by mycelium, pregrown in YMG medium without mocimycin.
# [3] = test system: S. ramocissimus CBS 190.69; assay: as above; assay type: cell-based; conditions: mycelium pregrown in YMG medium without mocimycin; 1 ml of a 16 hrs culture plated
# Source text: as §4
# S. ramocissimus R1V [4] = assay: germination and growth of spores in liquid YMG medium; assay type: cell-based; conditions: 5.10⁷ spores/ml, 25 ml YMG medium, shake flasks, 5 days at 30°C
# Experimental: (§5) Spores, mycelium, and protoplasts of strain S. ramocissimus R1V were examined with respect to the minimal inhibitory concentration of mocimycin on their growth properties.
# (§6) Spores of strain S. ramocissimus R1V and the control S. ramocissimus CBS 190.69 were inoculated at 5.10⁷ spores/ml in parallel shake flasks containing 25 ml YMG medium and mocimycin at concentrations ranging from 0 to 1 g/l. Incubation was for 5 days at 30°C. For the control strain 0.15 g/l mocimycin inhibited germination (and/or growth) of the spores, whereas spores of S. ramocissimus strain R1V still germinated and grew at mocimycin concentrations up to 0.75 g/l.
# [5] = test system: S. ramocissimus CBS 190.69; assay: as above; assay type: cell-based; conditions: 5.10⁷ spores/ml, 25 ml YMG medium, shake flasks, 5 days at 30°C
# Experimental: as §5, §6
# [6] = test system: S. ramocissimus CBS 190.69; assay: regeneration of protoplasts on regeneration medium; assay type: cell-based; conditions: for Regeneration efficiency of protoplasts: regeneration medium
# Experimental: Spores were isolated essentially as described by D. Hopwood et al. (cited above), and used to inoculate YMG medium (yeast extract 4 g/l, malt extract 10 g/l, glucose 4 g/l) containing 0.5% glycine. Protoplasts were obtained by lysozyme treatment of this culture, transformed as described by D. Hopwood et al. (cited above) with plasmid pMTST1VΔS and pMTST1TΔS. Subsequently the transformed protoplasts were spread on regeneration medium, and incubated at 30°C. Regeneration medium was prepared by mixing equal volumes of sporulation medium and stabilizer medium. Stabilizer medium consisted of NaNO₃ 3 g/l, K₂HPO₄.3H₂O 0.085 g/l, K₂SO₄ 0.25 g/l, FeSO₄.7H₂O 0.01 g/l, trace element solution 0.1 ml, Tris 3.03 g/l, NaCl 2.92 g/l, sucrose 103 g/l, glucose 10 g/l, MgCl₂.6H₂O 5 g/l, CaCl₂.2H₂O 1.5 g/l, and agar 20 g/l, adjusted to pH 7.2 with 4N HCl. […] After 24 hrs the regeneration plates were overlaid with 3 ml soft agar containing 20 µg/ml thiostrepton (D. Hopwood et al., cited above) and incubated at 30°C for 5 days.
# Another test was carried out using protoplasts of strains S. ramocissimus CBS 190.69 and S. ramocissimus R1V, prepared as described in Example 7. […] Thus protoplasts were plated on regeneration medium (Example 7) containing 0 to 0.1 g/l mocimycin. Under these conditions protoplasts of S. ramocissimu CBS 190.69 were able to regenerate only at mocimycin concentrations below 0.02 g/l; regeneration of S. ramocissimus R1V protoplasts in the presence of up to 0.1 g/l mocimycin occurred with the same efficiency as without mocimycin (Table 2).
# [7] = 16 mg/l mocimycin, period of 40 minutes
# [8] = S-30 extract of E. coli PM1455 transformant, reaction time 10 minutes
# T1 sequence (P29542 whole entry): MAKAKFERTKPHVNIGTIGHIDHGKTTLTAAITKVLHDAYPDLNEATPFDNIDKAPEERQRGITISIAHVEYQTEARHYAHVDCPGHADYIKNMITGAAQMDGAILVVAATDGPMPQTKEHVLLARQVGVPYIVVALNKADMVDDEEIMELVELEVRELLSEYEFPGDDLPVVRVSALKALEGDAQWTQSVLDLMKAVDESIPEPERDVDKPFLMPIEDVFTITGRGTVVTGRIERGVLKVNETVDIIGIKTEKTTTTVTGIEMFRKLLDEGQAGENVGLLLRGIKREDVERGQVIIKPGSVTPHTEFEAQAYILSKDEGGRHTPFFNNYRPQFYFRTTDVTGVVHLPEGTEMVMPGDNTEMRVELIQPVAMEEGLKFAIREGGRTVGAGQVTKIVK
structure (smiles),measurement,setting,value
"C/C=C\C=C\[C@@H]1O[C@](O)([C@H](CC)C(=O)NC/C=C/C=C(\C)[C@@H](OC)[C@H](C)[C@@H]2O[C@H](/C=C/C=C/C=C(\C)C(=O)c3c(O)cc[nH]c3=O)[C@H](O)[C@@H]2O)[C@H](O)[C@H](O)C1(C)C [mocimycin, Mocimycin]",efficiency of ³H-phenylalanine incorporation compared to the mocimycin free reaction,[1]; [7],≤ 20%
same,mocimycin concentration at a residual activity of 50% in the in vitro poly(phe) synthesis,[1]; [8],1.6 mg/L
same,efficiency of ³H-phenylalanine incorporation compared to the parallel incubation without mocimycin,SrEF-Tu mutant A378V; [7],80%
same,mocimycin concentration at a residual activity of 50% in the in vitro poly(phe) synthesis,SrEF-Tu mutant A378V; [8],160 mg/L
same,minimal inhibitory concentration,S. ramocissimus R1V [2],750 µg/mL
same,minimal inhibitory concentration,[3],150 µg/mL
same,mocimycin concentrations at which spores still germinated and grew,S. ramocissimus R1V [4],up to 0.75 g/l
same,mocimycin concentration that inhibited germination (and/or growth) of the spores,[5],0.15 g/L
same,mocimycin concentrations at which protoplasts were able to regenerate,[6]; regeneration medium containing 0 to 0.1 g/l mocimycin,below 0.02 g/l
same,Regeneration efficiency of protoplasts,[6]; mocimycin 0.01 g/l,40%
same,Regeneration efficiency of protoplasts,[6]; mocimycin 0.02 g/l,0%
same,Regeneration efficiency of protoplasts,[6]; mocimycin 0.04 g/l,0%
same,Regeneration efficiency of protoplasts,[6]; mocimycin 0.07 g/l,0%
same,Regeneration efficiency of protoplasts,[6]; mocimycin 0.10 g/l,0%
